In BindingDB's records for doi:10.1021/jm060193m (Universit&#224, 2006) one finds IC50 data, which are given here for one molecule.

The target of test [1] is T1, Integrase (Human immunodeficiency virus 1, UniProt Q7ZJM1). As to the kind of experiment: Inhibition of HIV1 integrase strand transfer activity.
The target in test [2] is T1, Integrase. The test is described as follows: Inhibition of HIV1 integrase 3' processing activity.

T1 sequence (Q7ZJM1 whole entry): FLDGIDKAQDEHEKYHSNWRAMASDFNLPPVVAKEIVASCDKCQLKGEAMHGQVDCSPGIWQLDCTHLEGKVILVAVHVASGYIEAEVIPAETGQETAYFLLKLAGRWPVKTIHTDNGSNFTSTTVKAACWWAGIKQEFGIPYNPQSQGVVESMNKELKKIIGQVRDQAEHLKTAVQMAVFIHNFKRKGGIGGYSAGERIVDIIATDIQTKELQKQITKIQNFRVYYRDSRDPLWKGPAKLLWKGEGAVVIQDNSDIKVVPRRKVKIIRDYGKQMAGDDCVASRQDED

Turning to `COC(=O)C(=O)CC(=O)c1ccccc1`, the IC50 in test [1] and in test [2] was more than 333 µM throughout.
